Where a chain is given by its changes, count along the chain named.
Columns and labels:
[1] = target: T1, His-MBP-Sestrin2 (bacterially-produced Sestrin2) (Homo sapiens, UniProt P58004); assay: thermal shift assay, Sypro orange; format: binding; conditions: maximal shift
T1 sequence (P58004 1-480): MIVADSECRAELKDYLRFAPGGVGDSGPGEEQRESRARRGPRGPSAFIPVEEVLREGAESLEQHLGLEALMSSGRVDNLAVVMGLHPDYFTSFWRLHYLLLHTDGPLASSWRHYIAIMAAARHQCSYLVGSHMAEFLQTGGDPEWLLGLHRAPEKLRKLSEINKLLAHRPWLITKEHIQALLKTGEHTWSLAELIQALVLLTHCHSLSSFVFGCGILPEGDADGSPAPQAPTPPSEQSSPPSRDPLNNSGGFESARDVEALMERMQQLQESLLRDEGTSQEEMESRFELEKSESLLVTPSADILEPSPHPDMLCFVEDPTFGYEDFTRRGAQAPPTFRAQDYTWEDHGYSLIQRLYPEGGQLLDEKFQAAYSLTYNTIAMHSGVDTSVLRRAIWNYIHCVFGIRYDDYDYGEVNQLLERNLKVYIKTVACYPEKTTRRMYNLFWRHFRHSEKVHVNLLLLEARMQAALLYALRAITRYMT

Sestrin1 (two isoforms) = target: T2, Sestrin1 (two isoforms) (Homo sapiens, UniProt Q9Y6P5); assay: [3H]Leucine binding, FLAG immunoprecipitate on beads; conditions: labelled compound
T2 sequence (Q9Y6P5 1-492): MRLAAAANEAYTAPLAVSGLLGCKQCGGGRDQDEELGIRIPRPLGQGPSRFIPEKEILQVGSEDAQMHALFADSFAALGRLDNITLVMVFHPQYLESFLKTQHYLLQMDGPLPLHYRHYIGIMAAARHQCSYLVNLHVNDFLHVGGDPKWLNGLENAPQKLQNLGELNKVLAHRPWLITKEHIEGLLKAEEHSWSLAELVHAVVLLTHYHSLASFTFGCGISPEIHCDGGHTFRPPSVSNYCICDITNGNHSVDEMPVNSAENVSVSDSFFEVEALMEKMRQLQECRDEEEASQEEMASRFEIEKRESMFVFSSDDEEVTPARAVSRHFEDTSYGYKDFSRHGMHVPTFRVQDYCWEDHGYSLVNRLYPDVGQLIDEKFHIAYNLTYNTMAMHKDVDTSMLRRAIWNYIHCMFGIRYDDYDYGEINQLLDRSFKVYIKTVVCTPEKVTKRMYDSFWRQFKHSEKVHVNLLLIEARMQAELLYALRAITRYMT

Sestrin3 = target: T3, Sestrin3 (Homo sapiens, UniProt P58005); assay: as above; conditions: labelled compound
T3 sequence (P58005 1-492): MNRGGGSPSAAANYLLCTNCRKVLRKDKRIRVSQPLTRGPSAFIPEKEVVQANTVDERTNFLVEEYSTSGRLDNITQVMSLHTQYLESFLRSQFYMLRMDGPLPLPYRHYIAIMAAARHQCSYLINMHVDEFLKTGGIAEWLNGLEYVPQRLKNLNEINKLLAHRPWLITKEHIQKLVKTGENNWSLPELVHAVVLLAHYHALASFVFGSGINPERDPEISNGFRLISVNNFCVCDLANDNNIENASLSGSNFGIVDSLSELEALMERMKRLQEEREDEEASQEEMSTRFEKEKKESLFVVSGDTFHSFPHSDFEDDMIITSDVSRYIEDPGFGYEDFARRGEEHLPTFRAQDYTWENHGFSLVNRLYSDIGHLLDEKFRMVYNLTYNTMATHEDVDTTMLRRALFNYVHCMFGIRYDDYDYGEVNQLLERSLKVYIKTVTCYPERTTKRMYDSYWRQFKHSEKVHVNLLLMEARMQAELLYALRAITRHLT

Sestrin2 (FLAG-Sestrin2) [2] = target: T4, Sestrin2 (FLAG-Sestrin2) (Homo sapiens, UniProt P58004, E451A); assay: as above; conditions: labelled compound
T4 sequence (P58004 1-480 E451A): T1 sequence (P58004 1-480) with E451A

Sestrin2 (FLAG-Sestrin2) [3] = target: T5, Sestrin2 (FLAG-Sestrin2) (Homo sapiens, UniProt P58004, S190W); assay: as above; conditions: labelled compound
T5 sequence (P58004 1-480 S190W): T1 sequence (P58004 1-480) with S190W

Sestrin2 (FLAG-Sestrin2) [4] = target: T6, Sestrin2 (FLAG-Sestrin2) (Homo sapiens, UniProt P58004, L261A); assay: as above; conditions: labelled compound
T6 sequence (P58004 1-480 L261A): T1 sequence (P58004 1-480) with L261A

Sestrin2-GATOR2 complex = Sestrin2-GATOR2 complex (Homo sapiens, UniProt P58004); assay: disruption of immunopurified Sestrin2-GATOR2 complex, immunoblot; format: binding; conditions: 300 µM amino acid
Sestrin2-GATOR2 complex, sequence (Q96S15 whole entry partner, one chain of several): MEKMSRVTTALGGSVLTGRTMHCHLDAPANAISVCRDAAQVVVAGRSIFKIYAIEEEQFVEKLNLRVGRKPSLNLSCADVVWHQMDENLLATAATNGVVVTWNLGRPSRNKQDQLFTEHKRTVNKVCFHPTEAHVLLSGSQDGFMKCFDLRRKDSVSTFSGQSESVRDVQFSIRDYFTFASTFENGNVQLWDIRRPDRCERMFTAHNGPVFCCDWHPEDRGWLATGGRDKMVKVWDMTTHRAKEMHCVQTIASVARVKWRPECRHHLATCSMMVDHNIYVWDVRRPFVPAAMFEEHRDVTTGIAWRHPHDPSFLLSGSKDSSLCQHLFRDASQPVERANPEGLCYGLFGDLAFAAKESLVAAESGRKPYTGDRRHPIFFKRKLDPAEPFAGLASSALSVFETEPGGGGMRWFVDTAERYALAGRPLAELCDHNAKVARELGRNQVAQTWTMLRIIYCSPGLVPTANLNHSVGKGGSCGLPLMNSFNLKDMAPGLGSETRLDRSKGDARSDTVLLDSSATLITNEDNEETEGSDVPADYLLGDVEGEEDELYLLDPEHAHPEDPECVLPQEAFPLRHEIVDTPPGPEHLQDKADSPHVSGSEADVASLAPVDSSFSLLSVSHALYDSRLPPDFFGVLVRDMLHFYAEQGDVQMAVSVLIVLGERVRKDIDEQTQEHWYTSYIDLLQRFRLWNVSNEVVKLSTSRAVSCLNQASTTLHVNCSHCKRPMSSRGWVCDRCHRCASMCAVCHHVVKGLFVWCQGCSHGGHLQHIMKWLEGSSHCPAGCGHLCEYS
Sestrin2-GATOR2 complex, sequence (Q9NXC5 whole entry partner, one chain of several): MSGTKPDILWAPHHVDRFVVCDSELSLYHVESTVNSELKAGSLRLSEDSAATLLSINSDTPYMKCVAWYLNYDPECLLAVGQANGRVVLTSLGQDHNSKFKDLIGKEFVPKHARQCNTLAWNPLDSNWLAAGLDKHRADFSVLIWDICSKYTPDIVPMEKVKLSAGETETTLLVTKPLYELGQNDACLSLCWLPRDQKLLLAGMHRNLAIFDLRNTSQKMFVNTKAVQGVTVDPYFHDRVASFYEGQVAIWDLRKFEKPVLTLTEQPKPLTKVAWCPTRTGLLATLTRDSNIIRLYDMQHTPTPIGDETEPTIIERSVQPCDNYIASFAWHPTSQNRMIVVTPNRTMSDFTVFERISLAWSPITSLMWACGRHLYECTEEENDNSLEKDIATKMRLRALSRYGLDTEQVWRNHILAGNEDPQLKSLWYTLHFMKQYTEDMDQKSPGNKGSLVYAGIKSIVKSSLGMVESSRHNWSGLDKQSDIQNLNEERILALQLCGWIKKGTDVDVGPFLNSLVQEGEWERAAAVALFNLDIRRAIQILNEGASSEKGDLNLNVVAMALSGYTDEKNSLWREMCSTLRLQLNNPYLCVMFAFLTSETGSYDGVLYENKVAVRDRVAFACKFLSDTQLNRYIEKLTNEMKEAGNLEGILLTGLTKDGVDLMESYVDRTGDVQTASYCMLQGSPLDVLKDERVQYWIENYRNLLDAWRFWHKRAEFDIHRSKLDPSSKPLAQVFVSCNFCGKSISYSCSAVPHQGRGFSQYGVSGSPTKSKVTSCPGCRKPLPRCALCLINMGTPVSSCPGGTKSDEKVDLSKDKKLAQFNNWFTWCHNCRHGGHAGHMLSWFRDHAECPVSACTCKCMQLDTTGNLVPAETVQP
Sestrin2-GATOR2 complex, sequence (Q6PJI9 whole entry partner, one chain of several): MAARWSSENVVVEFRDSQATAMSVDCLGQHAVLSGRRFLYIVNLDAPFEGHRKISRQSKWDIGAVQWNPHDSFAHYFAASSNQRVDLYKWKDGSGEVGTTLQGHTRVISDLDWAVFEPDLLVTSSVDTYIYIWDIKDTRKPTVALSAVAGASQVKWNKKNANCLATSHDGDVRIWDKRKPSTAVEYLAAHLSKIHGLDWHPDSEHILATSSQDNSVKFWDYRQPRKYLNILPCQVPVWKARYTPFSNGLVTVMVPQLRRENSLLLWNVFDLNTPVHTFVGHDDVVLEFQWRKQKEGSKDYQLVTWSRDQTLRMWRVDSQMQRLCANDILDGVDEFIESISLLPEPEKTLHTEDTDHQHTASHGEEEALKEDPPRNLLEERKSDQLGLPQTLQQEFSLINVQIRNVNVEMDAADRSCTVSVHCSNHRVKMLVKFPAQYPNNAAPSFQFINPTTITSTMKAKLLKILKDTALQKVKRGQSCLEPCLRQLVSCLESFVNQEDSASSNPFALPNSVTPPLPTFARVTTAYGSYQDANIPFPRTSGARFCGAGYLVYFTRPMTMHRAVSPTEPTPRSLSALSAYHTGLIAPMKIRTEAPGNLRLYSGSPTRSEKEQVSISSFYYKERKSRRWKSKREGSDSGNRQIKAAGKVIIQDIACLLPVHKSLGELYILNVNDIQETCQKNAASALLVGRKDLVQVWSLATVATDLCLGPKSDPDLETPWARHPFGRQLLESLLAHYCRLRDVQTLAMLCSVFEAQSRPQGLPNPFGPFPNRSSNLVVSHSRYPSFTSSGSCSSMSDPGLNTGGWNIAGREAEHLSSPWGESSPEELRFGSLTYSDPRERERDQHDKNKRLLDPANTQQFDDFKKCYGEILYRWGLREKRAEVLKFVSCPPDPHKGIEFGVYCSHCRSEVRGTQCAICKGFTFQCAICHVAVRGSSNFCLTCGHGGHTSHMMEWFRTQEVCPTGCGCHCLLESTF
Sestrin2-GATOR2 complex, sequence (Q96EE3 whole entry partner, one chain of several): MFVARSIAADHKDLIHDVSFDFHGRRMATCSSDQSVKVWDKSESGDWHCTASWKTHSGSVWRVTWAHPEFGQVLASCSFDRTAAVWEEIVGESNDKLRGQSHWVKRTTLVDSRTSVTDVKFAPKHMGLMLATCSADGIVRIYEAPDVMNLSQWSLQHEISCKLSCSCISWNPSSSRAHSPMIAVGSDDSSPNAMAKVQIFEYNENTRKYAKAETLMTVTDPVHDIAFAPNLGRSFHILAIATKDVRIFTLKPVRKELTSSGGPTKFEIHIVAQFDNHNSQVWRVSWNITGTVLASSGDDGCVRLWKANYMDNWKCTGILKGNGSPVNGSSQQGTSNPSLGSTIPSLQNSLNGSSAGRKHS
Sestrin2-GATOR2 complex, sequence (P55735 2-322 partner, one chain of several): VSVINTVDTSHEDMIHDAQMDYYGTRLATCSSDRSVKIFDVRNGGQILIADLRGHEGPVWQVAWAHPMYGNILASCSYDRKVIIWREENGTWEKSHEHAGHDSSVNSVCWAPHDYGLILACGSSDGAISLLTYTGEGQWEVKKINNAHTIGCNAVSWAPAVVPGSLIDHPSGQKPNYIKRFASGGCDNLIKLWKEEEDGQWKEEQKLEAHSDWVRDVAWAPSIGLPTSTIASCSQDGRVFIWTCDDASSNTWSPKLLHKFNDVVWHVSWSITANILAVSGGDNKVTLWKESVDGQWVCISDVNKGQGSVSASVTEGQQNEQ

Row | Structure (SMILES) | melting temperature shift (dTm) [1] | [3H]Leucine binding, FLAG immunoprecipitate on beads (Sestrin1 (two isoforms)) | very weak binding (Sestrin3) | no appreciable binding (Sestrin2 (FLAG-Sestrin2) [2]) | [3H]Leucine binding, FLAG immunoprecipitate on beads (Sestrin2 (FLAG-Sestrin2) [3]) | no appreciable binding (Sestrin2 (FLAG-Sestrin2) [4]) | disruption of immunopurified Sestrin2-GATOR2 complex, immunoblot (Sestrin2-GATOR2 complex)
1 | CC(C)C[C@H](N)C(=O)O [leucine] | up to 8.5 °C | Sestrin1 bound leucine to a similar extent as did Sestrin2 | Sestrin3 bound very weakly | L261A and E451A, which do not bind leucine to an appreciable degree | Sestrin2 mutant (S190W) that still binds leucine | L261A and E451A, which do not bind leucine to an appreciable degree | 
2 | CC(C)[C@H](N)C(=O)O [valine] |  |  |  |  |  |  | methionine, isoleucine, and valine– had any effect on the Sestrin2-GATOR2 interaction in vitro

From article PMC4698017 (Science (New York, N.Y.), 2015)
